The values below come from US20140171431A1, “AZOLE HETEROCYCLIC COMPOUND, PREPARATION METHOD, PHARMACEUTICAL COMPOSITION AND USE” (priority 2011, published 2014).

Read-outs that look alike come from different tables or passages of the source. Where only a bound is given, the exact number is not on record here.

One experiment concerns the target T1, Lp-PLA2 in rabbit serum (Oryctolagus cuniculus, UniProt G1SE06).
T1 construct: from tissue; host or cells: rabbit serum
T1 sequence (G1SE06 22-423): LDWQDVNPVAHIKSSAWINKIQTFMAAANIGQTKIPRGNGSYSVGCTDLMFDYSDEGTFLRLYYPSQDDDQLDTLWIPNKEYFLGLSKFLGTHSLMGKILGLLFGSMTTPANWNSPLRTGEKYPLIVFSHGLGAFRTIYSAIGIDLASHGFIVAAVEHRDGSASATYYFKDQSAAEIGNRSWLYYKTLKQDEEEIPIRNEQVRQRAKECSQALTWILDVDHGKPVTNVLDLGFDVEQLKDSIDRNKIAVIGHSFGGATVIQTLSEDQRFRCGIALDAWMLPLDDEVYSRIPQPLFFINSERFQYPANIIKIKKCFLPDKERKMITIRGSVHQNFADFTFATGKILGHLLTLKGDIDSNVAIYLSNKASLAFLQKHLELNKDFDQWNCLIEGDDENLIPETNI
In words: In vitro inhibitory activity towards the enzyme Lp-PLA2 in rabbit serum, [3H]PAF substrate. The class given is biochemical. As to conditions: for inhibition at 0.1 µM: 100 nM. On the procedure:
(§1) The activities of compounds were measured using [^3H] labeled platelet activating factor ([^3H]PAF, Perkinelmer, Lot NET910) as the substrate. The reaction was carried out in a system containing 50 mmol/L HEPES and 150 mmol/L NaCl (pH 7.4) in a total volume of 200 μl. First, 10 μL rabbit serum and 10 μl DMSO solution of the test compound were added to the system and preincubated for 10 min at 37° C. Then 20 nM [^3H]PAF was added as listed in table 1 to start the reaction and incubated for a further 10 min at 37° C. After that, 600 μl of CHCl3/MeOH (2:1) was added and the resulting mixture was vortex mixed and the reaction was stopped. After settled for a while, the mixture was centrifugated at 12000×g for 15 min. The supernatant was transferred to a new tube and 200 μl of CHCl3 was added. The mixture was mixed by vortexing and then settled or centrifugated for 2 min. A 100 μl portion of the supernatant was then collected for radioactivity intensity measurement.
The inhibition rate was determined by the following equation:
Inhibitory rate (%)=1−(DPMcompound tube−DPMblank tube)/(DPMcontrol tube−DPMblank tube)*100%
(Note: DPM is radioactivity intensity unit.)

A further experiment concerns the target T2, Lp-PLA2 in human serum (Homo sapiens, UniProt Q13093).
T2 construct: from tissue
T2 sequence (Q13093 22-441): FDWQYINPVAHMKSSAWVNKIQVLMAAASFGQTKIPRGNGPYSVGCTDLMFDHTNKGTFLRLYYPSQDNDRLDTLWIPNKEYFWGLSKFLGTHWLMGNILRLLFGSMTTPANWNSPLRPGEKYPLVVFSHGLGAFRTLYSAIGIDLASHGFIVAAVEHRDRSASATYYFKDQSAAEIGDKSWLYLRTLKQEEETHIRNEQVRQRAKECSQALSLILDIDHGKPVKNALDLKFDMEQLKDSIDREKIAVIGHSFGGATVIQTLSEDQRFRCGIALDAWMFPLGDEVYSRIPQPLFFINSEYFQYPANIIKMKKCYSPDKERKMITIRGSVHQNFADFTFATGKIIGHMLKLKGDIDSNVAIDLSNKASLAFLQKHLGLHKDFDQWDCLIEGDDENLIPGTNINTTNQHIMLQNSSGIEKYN
In words: In vitro inhibitory activity towards the enzyme Lp-PLA2 in human serum, [3H]PAF substrate. As to conditions: for inhibition at 0.01 µM: 10 nM; for inhibition at 0.1 µM: 100 nM. The format is biochemical. The method, then:
as §1, with “mmol/l” for “mmol/L”, “human plasma” for “rabbit serum”, “was” for “was vortex”, “with vortex.” for “and the reaction was stopped.”, “added and mixed by vortexing.” for “added.”, “was” for “was mixed by vortexing and then”

Setting [1] is: rabbit serum, read-out: inhibition, %.
Where [2] appears, read: human serum, read-out: inhibition, %.
[3] abbreviates: read-out: inhibitory rate towards the human serum derived Lp-PLA2 enzyme.

In the case of `CCN1CCCC1CNCc1nnc(Cn2c(SCc3ccc(F)cc3)nc(=O)c3c2CCC3)n1Cc1ccc(-c2ccc(C(F)(F)F)cc2)cc1` (racemic) [Example 83, (±)-1-((5-(((1-ethylpyrrolidin-2-yl)methylamino)methyl)-4-((4′-(trifluoromethyl)biphenyl-4-yl)methyl)-4H-1,2,4-triazol-3-yl)methyl)-2-(4-fluorobenzylthio)-6,7-dihydro-1H-cyclopenta[d]pyrimidin-4(5H)-one], the inhibition at 0.1 µM at Lp-PLA2 in rabbit serum (setting [1]) was 93%; on Lp-PLA2 in rabbit serum (read-out: inhibitory rate towards the rabbit serum derived Lp-PLA2 enzyme), > 90%; at Lp-PLA2 in human serum (human serum), 95%. For the same molecule, the values for the inhibition at 0.01 µM on Lp-PLA2 in human serum (setting [2]) and on Lp-PLA2 in human serum (setting [3]) were 81% and > 80%, respectively.
On Lp-PLA2 in rabbit serum (rabbit serum), `CCN(CC)CCn1c(-c2ccc(-c3ccc(C(F)(F)F)cc3)cc2)cnc1Cn1c(SCc2ccc(F)cc2)nc(=O)c2c1CCC2` [Example 38, 1-((1-(2-(diethylamino)ethyl)-5-(4′-(trifluoromethyl)biphenyl-4-yl)-1H-imidazol-2-yl)methyl)-2-(4-fluorobenzylthio)-6,7-dihydro-1H-cyclopenta[d]pyrimidin-4(5H)-one] displayed an inhibition at 1 µM of 16% and an inhibition at 10 µM of 20.4%.
Turning to `Cc1cnc(Cn2c(SCc3ccc(F)cc3)nc(=O)c3c2CCC3)n1Cc1ccc(-c2ccc(C(F)(F)F)cc2)cc1` [Example 40, 2-(4-fluorobenzylthio)-1-((5-methyl-1-((4′-(trifluoromethyl)biphenyl-4-yl)methyl)-1H-imidazol-2-yl)methyl)-6,7-dihydro-1H-cyclopenta[d]pyrimidin-4 (5H)-one], the inhibition at 0.1 µM on Lp-PLA2 in rabbit serum (setting [1]) was 53.1%. The inhibition at 1 µM against Lp-PLA2 in rabbit serum (rabbit serum) amounted to 90.7%.
The matching figures for `Cc1cnc(Cn2cc(Cc3cnn(C)c3)c(=O)nc2SCc2ccc(F)cc2)n1Cc1ccc(-c2ccc(C(F)(F)F)cc2)cc1` [Example 41, 2-(4-fluorobenzylthio)-1-((5-methyl-1-((4′-(trifluoromethyl)biphenyl-4-yl)methyl)-1H-imidazol-2-yl)methyl)-5-((1-methyl-1H-pyrazol-4-yl)methyl)pyrimidin-4(1H)-one]: 12.6% and 64.9%.
On to `CCN(CC)Cc1cnc(Cn2c(SCc3ccc(F)cc3)nc(=O)c3c2CCC3)n1Cc1ccc(-c2ccc(C(F)(F)F)cc2)cc1` [Example 42, 1-((5-((diethylamino)methyl)-1-((4′-(trifluoromethyl)biphenyl-4-yl)methyl)-1H-imidazol-2-yl)methyl)-2-(4-fluorobenzylthio)-6,7-dihydro-1H-cyclopenta[d]pyrimidin-4(5H)-one], for which the inhibition at 0.1 µM turned out to be 88.3% on Lp-PLA2 in rabbit serum (setting [1]) and 92% on Lp-PLA2 in human serum (human serum). Besides, the inhibition at 1 µM at Lp-PLA2 in rabbit serum (rabbit serum) turned out to be 97.7%. For the same molecule, the inhibition at 0.01 µM at Lp-PLA2 in human serum (setting [2]) was 75%.
`O=c1nc(SCc2ccc(F)cc2)n(Cc2ncc(C[N+]3(Cc4ccc(F)cc4)CCCC3)n2Cc2ccc(-c3ccc(C(F)(F)F)cc3)cc2)c2c1CCC2` [Example 49, 1-(4-fluorobenzyl)-1-(2-((2-(4-fluorobenzylthio)-4-oxo-4,5,6,7-tetrahydro-1H-cyclopenta[d]pyrimidin-1-yl)methyl)-1-((4′-(trifluoromethyl)biphenyl-4-yl)methyl)-1H-imidazol-5-yl)methyl)pyrrolidinium bromide]: the inhibition at 0.01 µM at Lp-PLA2 in human serum (setting [2]) is 97%; on Lp-PLA2 in human serum (setting [3]), > 80%. Besides, the inhibition at 0.1 µM at Lp-PLA2 in human serum (human serum) was 98%.
Consider `CCOC(=O)c1cnc(Cn2c(SCc3ccc(F)cc3)nc(=O)c3c2CCC3)n1Cc1ccc(-c2ccc(C(F)(F)F)cc2)cc1` [Example 50, ethyl 2-((2-(4-fluorobenzylthio)-4-oxo-4,5,6,7-tetrahydro-1H-cyclopenta[d]pyrimidin-1-yl)methyl)-1-((4′-(trifluoromethyl)biphenyl-4-yl)methyl)-1H-imidazole-5-carboxylate], for which the inhibition at 0.1 µM on Lp-PLA2 in rabbit serum (setting [1]) is 57%.
Turning to `O=c1nc(SCc2ccc(F)cc2)n(Cc2nc3ccccc3n2Cc2ccc(-c3ccc(C(F)(F)F)cc3)cc2)c2c1CCC2` [Example 53, 2-(4-fluorobenzylthio)-1-((1-((4′-(trifluoromethyl)biphenyl-4-yl)methyl)-1H-benzo[d]imidazol-2-yl)methyl)-6,7-dihydro-1H-cyclopenta[d]pyrimidin-4(5H)-one], the inhibition at 0.1 µM at Lp-PLA2 in rabbit serum (setting [1]) was found to be 43.2%. Further, the inhibition at 1 µM at Lp-PLA2 in rabbit serum (rabbit serum) came to 90.1%.
Turning to `Cn1cc(Cc2cn(Cc3nc4ccccc4n3Cc3ccc(-c4ccc(C(F)(F)F)cc4)cc3)c(SCc3ccc(F)cc3)nc2=O)cn1` [Example 54, 2-(4-fluorobenzylthio)-5-((1-methyl-1H-pyrazol-4-yl)methyl)-1-((1-((4′-(trifluoromethyl)biphenyl-4-yl)methyl)-1H-benzo[d]imidazol-2-yl)methyl)pyrimidin-4 (1H)-one], the inhibition at 0.1 µM at Lp-PLA2 in rabbit serum (setting [1]) was determined as 35.9%. Further, at Lp-PLA2 in rabbit serum (rabbit serum), the inhibition at 1 µM was found to be 88.8%.
Take `CCn1c(Cn2c(SCc3ccc(F)cc3)nc(=O)c3c2CCC3)nnc1-c1ccc(-c2ccc(C(F)(F)F)cc2)cc1` [Example 55, 1-((4-ethyl-5-(4′-(trifluoromethyl)biphenyl-4-yl)-4H-1,2,4-triazol-3-yl)methyl)-2-(4-fluorobenzylthio)-6,7-dihydro-1H-cyclopenta[d]pyrimidin-4(5H)-one]: at Lp-PLA2 in rabbit serum (rabbit serum), the inhibition at 1 µM stood at 21% and the inhibition at 10 µM was found to be 33.6%.
Consider `CCn1c(Cn2cc(Cc3cnn(C)c3)c(=O)nc2SCc2ccc(F)cc2)nnc1-c1ccc(-c2ccc(C(F)(F)F)cc2)cc1` [Example 58, 1-((4-ethyl-5-(4′-(trifluoromethyl)biphenyl-4-yl)-4H-1,2,4-triazol-3-yl)methyl)-2-(4-fluorobenzylthio)-5-((1-methyl-1H-pyrazol-4-yl)methyl)pyrimidin-4 (1H)-one], for which, at Lp-PLA2 in rabbit serum (rabbit serum), the inhibition at 1 µM was 32% and the inhibition at 10 µM was 94.8%.
Molecule `CCn1c(CCCc2ccccc2)nnc1Cn1c(SCc2ccc(F)cc2)nc(=O)c2c1CCC2` [Example 59, 1-((4-ethyl-5-(3-phenylpropyl)-4H-1,2,4-triazol-3-yl)methyl)-2-(4-fluorobenzylthio)-6,7-dihydro-1H-cyclopenta[d]pyrimidin-4(5H)-one] returned an inhibition at 10 µM on Lp-PLA2 in rabbit serum (rabbit serum) of 9.3%.
On the same count and under the same terms, with `CCn1c(Cc2ccc(-c3ccc(C(F)(F)F)cc3)cc2)nnc1Cn1c(SCc2ccc(F)cc2)nc(=O)c2c1CCC2` [Example 60, 1-((4-ethyl-5-((4′-(trifluoromethyl)biphenyl-4-yl)methyl)-4H-1,2,4-triazol-3-yl)methyl)-2-(4-fluorobenzylthio)-6,7-dihydro-1H-cyclopenta[d]pyrimidin-4(5H)-one] the figure was 40%.
With `CC(C)(C(=O)O)N1CCN(Cc2nnc(Cn3c(SCc4ccc(F)cc4)nc(=O)c4c3CCC4)n2Cc2ccc(-c3ccc(C(F)(F)F)cc3)cc2)CC1` [Example 89, 2-(4-((5-((2-(4-fluorobenzylthio)-4-oxo-4,5,6,7-tetrahydro-1H-cyclopenta[d]pyrimidin-1-yl)methyl)-4-((4′-(trifluoromethyl)biphenyl-4-yl)methyl)-4H-1,2,4-triazol-3-yl)methyl)piperazin-1-yl)-2-methylpropanoic acid], at Lp-PLA2 in rabbit serum (setting [1]), the inhibition at 0.1 µM is 13.4%.
